These results are taken from US9156860B2, “Boron-containing small molecules” (Anacor Pharmaceuticals, Inc., priority 2011, dated 2015).

As a reminder, the mortality is the share of the test organisms that died.

For data set [1], the system named is Lone star tick larvae (Amblyomma americanum). Put plainly: Larval immersion microassay against larval-stage Lone star ticks. To be noted: Amblyomma americanum, 24 h, read-out: activity (percent larval mortality). As for the experimental part: The larval immersion microassay was conducted as described in detail in White, et al., J. Med. Entomol. […] Compounds of the invention were formulated in dimethylsulfoxide (DMSO) to prepare a stock solution at a concentration of at least 10 mM. […] Approximately 30-50 Lone star tick larvae (Amblyomma americanum) were submerged into each well containing compounds. After a 30 minute immersion period, larvae were removed with a wide-bore pipette tip in 0.05 ml of fluid, dispensed into a commercial paper tissue biopsy bag which was sealed at the top with a plastic dialysis clip, inverted and allowed to air dry for 60 minutes. Bags containing larvae were then incubated at approximately 27 degrees Celsius and >90% relative humidity. After 24 hours, bags were opened, live and dead larvae were counted and percent larval mortality was calculated.
7 contains one chiral center, and is therefore a racemic mixture comprised of approximately 50% R- and 50% S-enantiomer. In vitro and surrogate animal (rat) studies were conducted to evaluate the biological activity of the R- and S-enantiomers of 7. For the in vitro study, larvae of the Lone star tick (Amblyomma americanum) were exposed to 17 (S-enantiomer) and 18 (R-enantiomer) using the larval immersion microassay at a concentration of no greater than 0.3 mM. Following exposure, larvae were removed, transferred to a tissue biopsy bag and incubated at approximately 27 degrees Celsius and >90% relative humidity. After 24 hours, biopsy bags were opened and the numbers of live and dead larvae were determined.

Data set [2] deals with brown dog tick (Rhipicephalus sanguineus). Put plainly: Example 5: efficacy against brown dog tick infestations on dogs. The class given is in vivo. As for the experimental part:
(§1) The therapeutic (knockdown) and residual efficacy of 7 and 8, each administered orally at a point dose of either 25 mg/kg or 50 mg/kg bodyweight, was evaluated against adult tick (Dermacentor variabilis and Rhipicephalus sanguineus) infestations on dogs. Twenty (20) male and female beagle dogs were allocated to one of five treatment groups, four (4) dogs per group: Untreated control; 7, 25 mg/kg; 7, 50 mg/kg; 8, 25 mg/kg; and 8, 50 mg/kg. On Day −1, all dogs were infested with approximately 50 unfed, adult D. variabilis ticks. On Day 0, dogs were orally administered gelatin capsules containing either 7 or 8 (50% technical active, 47% microcrystalline cellulose and 3% croscarmellose sodium, w/w) so as to achieve the desired point dosages. Ticks were counted and classified on all dogs, but not removed, on Day 1 (approximately 24 hours after treatment). On Day 2, approximately 48 hours after treatment, ticks were counted, classified and removed. Dogs were re-infested with the same number of D. variabilis ticks on Days 5, 12 and 19 with corresponding 48 hour post-infestation tick counts on Days 7, 14 and 21. Dogs were infested with approximately 50 unfed, adult brown dog ticks (Rhipicephalus sanguineus; approximately 50% male and 50% female) on Days 15 and 28, with corresponding 48 hour post-infestation tick counts on Days 17 and 30. GM percent efficacy of treatments against both tick species was calculated using the following formula: […]

The test system of data set [3] is adult cat flea (Ctenocephalides felis). Put plainly: Example 7: therapeutic efficacy and speed of kill against adult cat flea infestations on dogs. It counts as in vivo. The settings on record: 25 mg/kg oral. Here is the method: The therapeutic efficacy and speed of kill of 7, administered orally at a point dose of 25 mg/kg bodyweight, was evaluated against adult cat flea (Ctenocephalides felis) infestations on dogs. Twelve (12) male and female beagle dogs were allocated to one of four treatment groups (n=3 dogs per group). Group A was untreated, negative control; groups B, C and D received 7. On Day −1, all dogs were infested with approximately 100 unfed, adult fleas (approximately 50% male and 50% female). On Day 0, dogs in groups B, C and D were orally administered gelatin capsules containing 7, at a point dose of 25 mg/kg (50% technical active, 47% microcrystalline cellulose and 3% croscarmellose sodium, w/w). At eight (8) hours post-treatment, fleas were counted and removed from dogs in group B; at twelve (12) hours post-treatment, fleas were counted and removed from dogs in group C; and at twenty-four (24) hours post-treatment, fleas were counted and removed from dogs in groups A and D. GM percent efficacy of treatments against fleas was calculated using the following formula: […]

The nature of data set [4]: Tolerability of oral treatment in dogs. The class given is in vivo, beagle dogs. As for the experimental part: The therapeutic (knockdown) and residual efficacy of 7, administered orally at a point dosages of 5 and 25 mg/kg bodyweight, was evaluated against adult American dog tick (D. variabilis) and cat flea (C. felis) infestations on dogs. Sixteen (16) male and female beagle dogs were allocated to one of four treatment groups: Untreated control group (n=4 dogs); 7, 5 mg/kg liquid oral dosage form (n=4 dogs); 7, 25 mg/kg liquid oral dosage form (n=4 dogs); and 7, 25 mg/kg solid oral dosage form. Liquid dosage forms were prepared by dissolving 7 in a solution of 55% polyethylene glycol-300, 35% propylene glycol and 10% water at 25 mg/ml. Solid oral dosage form was prepared by thoroughly mixing 7 with microcrystalline cellulose and croscarmellose sodium (50:47:3, w/w) and placing into size 00 gelatin capsules. On Day 0, all dogs were orally administered 7 at the prescribed point dosages. Twenty-four (24) hours before treatment (Day −1), all dogs were infested with approximately 50 unfed, adult-stage American dog ticks (D. variabilis; approximately 50% male and 50% female). On Day 2, approximately 48 hours after treatment, ticks were removed and counts were conducted to determine the number and life-status classification of ticks present on all dogs (normal, moribund or dead; attached or detached). For all groups, dogs were re-infested with approximately 50 unfed, adult D. variabilis ticks on Days 5 and 12, with tick classification, counts and removal on Days 7 and 14 (approximately 48 hours after each infestation). For negative control and 7 (25 mg/kg solid oral dosage form) groups, dogs were re-infested with approximately 50 unfed, adult D. variabilis ticks on Days 19 and 28, with tick classification, counts and removal on Days 21 and 30. Immediately following removal of ticks on Day 30, dogs in the negative control and 7 (25 mg/kg solid oral dosage form) groups were infested with approximately 100 unfed, adult cat fleas (C. felis). Flea counts were conducted approximately 48 hours later, on Day 32.
as §1
The efficacy of 7, administered orally at a point dose of 25 mg/kg bodyweight, was evaluated against adult tick (Dermacentor variabilis) infestations. Twelve (12) male and female beagle dogs were allocated to three treatment groups: Untreated, negative control A; 7 group B; and 7 group C (n=4 dogs per group). Dogs were infested with approximately 50 unfed, adult D. variabilis ticks on Days −1, 5, 12, 19 and 28. […]

As for `CC1(C)OB(O)c2ccc(C3=NOC(c4cc(Cl)c(Cl)c(Cl)c4)(C(F)(F)F)C3)cc21` (racemic) [Compound 7, 3,3-Dimethyl-5-(5-(3,4,5-trichlorophenyl)-5-(trifluoromethyl)-4,5-dihydroisoxazol-3-yl)benzo[c][1,2]oxaborol-1(3H)-ol], the mortality at 300 µM in data set [1] was at least 80%. Besides, the “% efficacy” value is on record as “(75.0) %” in data set [2] (25 mg/kg oral capsule, Day 17); “(63.9) %” in data set [2] (50 mg/kg oral capsule, Day 30); “(11.8) %” in data set [3] (8 hours post-treatment). Also, the “Geometric mean group live tick count” value stood at 8.0 in data set [2] (25 mg/kg oral capsule, Day 17); 1.6 in data set [2] (50 mg/kg oral capsule, Day 17); 13.4 in data set [2] (50 mg/kg oral capsule, Day 30). The “Geometric mean group live flea count” value in data set [3] (8 hours post-treatment) stood at 75.6; in data set [3] (12 hours post-treatment) it was 0.3; in data set [3] (24 hours post-treatment), 0.0. For the same compound, the tolerability entry in data set [4] (oral 25 mg/kg, Example 7) is “well tolerated”; in data set [4] (oral 50 mg/kg, Example 6) it was “well tolerated”; in data set [4] (oral 5 or 25 mg/kg, Example 4), “well tolerated”; in data set [4] (oral 25 or 50 mg/kg, Example 5), “well tolerated”.
